Reference: the supplement of paper PMC10307832

Legend:
Assay in all cases: relative viability (nuclei count vs DMSO), 5 days (fraction); higher = more cells survive
[1] = compound: CC1(COc2ccc3c(c2)ncn3-c2ccc3cccc(N4CCC(N)CC4)c3n2)COC1 [Crenolanib] + CC(=O)c1c(C)c2cnc(Nc3ccc(N4CCNCC4)cn3)nc2n(C2CCCC2)c1=O [Palbociclib] (partner 0.5 µM)
In short: (§1)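 Lung cancer cell lines were pin-tool dosed in 1536-well plates on the day after seeding, with either a lone drug or a fixed anchor-drug dose plus five library-drug doses (not always all listed) in √10 steps. Nuclei were counted on 4× images after 5 days. Relative viability is the ratio of treated-well to vehicle-well nuclei counts, with each value a median of duplicate plates.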

[2] = compound: O=C1NC(=O)[C@@H](c2cn3c4c(cccc24)CCC3)[C@@H]1c1c[nH]c2ccccc12 [Tivantinib] + CC(C)C[C@H](NC(=O)[C@H](Cc1ccccc1)NC(=O)c1cnccn1)B(O)O [Bortezomib] (partner 0.002 µM)
In short: as §1

[3] = compound: CC1(COc2ccc3c(c2)ncn3-c2ccc3cccc(N4CCC(N)CC4)c3n2)COC1 [Crenolanib] + C[C@@H](Oc1cc(-c2cnn(C3CCNCC3)c2)cnc1N)c1c(Cl)ccc(F)c1Cl [Crizotinib] (partner 1 µM)
In short: as §1

[4] = compound: O=C1NC(=O)[C@@H](c2cn3c4c(cccc24)CCC3)[C@@H]1c1c[nH]c2ccccc12 [Tivantinib] + O=C(CCCCCCC(=O)Nc1ccccc1)NO [Vorinostat] (partner 1 µM)
In short: as §1

| Cell Line | relative viability ([1]; first compound 0.01 µM) | relative viability ([1]; first compound 0.03162 µM) | relative viability ([1]; first compound 0.1 µM) | relative viability ([1]; first compound 0.3162 µM) | relative viability ([1]; first compound 1 µM) | relative viability ([2]; first compound 0.01 µM) | relative viability ([2]; first compound 0.03162 µM) | relative viability ([2]; first compound 0.1 µM) | relative viability ([2]; first compound 0.3162 µM) | relative viability ([3]; first compound 0.01 µM) | relative viability ([3]; first compound 0.03162 µM) | relative viability ([3]; first compound 0.1 µM) | relative viability ([3]; first compound 0.3162 µM) | relative viability ([3]; first compound 1 µM) | relative viability ([4]; first compound 0.01 µM) | relative viability ([4]; first compound 0.03162 µM) | relative viability ([4]; first compound 0.1 µM) | relative viability ([4]; first compound 0.3162 µM) |
| --- | --- | --- | --- | --- | --- | --- | --- | --- | --- | --- | --- | --- | --- | --- | --- | --- | --- | --- |
| 201T | 0.363 | 0.349 | 0.341 | 0.37 | 0.337 | 1.06 | 1.06 | 1.09 | 1.1 | 1.04 | 1.02 | 1.01 | 1.04 | 0.976 | 0.894 | 0.835 | 0.898 | 0.907 |
| A549 | – | – | – | – | – | – | – | – | – | 0.853 | 0.76 | 0.769 | 0.99 | 0.717 | – | – | – | – |
| A-427 | 0.542 | – | 0.554 | 0.569 | 0.51 | 0.997 | 1 | 0.854 | 1.06 | 0.854 | 0.946 | 0.804 | 0.87 | 1.02 | 0.859 | 0.938 | 0.842 | 0.85 |
| ABC-1 | 0.775 | 0.638 | 0.549 | 0.643 | 0.899 | 0.287 | 0.243 | 0.337 | 0.301 | 1.01 | 0.883 | 1.13 | 1.01 | 1.19 | 1.44 | 1.32 | 1.01 | 1.21 |
| BEN | 0.464 | 0.482 | 0.48 | 0.524 | 0.497 | 0.75 | 0.561 | 0.744 | 0.824 | 0.89 | 0.839 | 0.863 | 0.763 | 0.847 | 0.591 | 0.566 | 0.528 | 0.515 |
| CAL-12T | 0.423 | 0.344 | 0.411 | 0.457 | 0.41 | 0.999 | 0.873 | 1.03 | 0.854 | 0.66 | 0.709 | 0.704 | 0.816 | 0.787 | 0.67 | 0.874 | 0.74 | 0.568 |
| COR-L23 | 0.245 | 0.319 | 0.299 | 0.306 | 0.266 | 0.977 | 0.93 | 0.942 | 0.996 | 0.678 | 0.722 | 0.577 | 0.718 | 0.667 | 0.528 | 0.509 | 0.426 | 0.608 |
| COR-L 105 | 0.435 | 0.467 | 0.436 | 0.379 | 0.417 | 0.754 | 0.398 | 0.671 | 0.354 | 0.845 | 0.604 | 0.731 | 0.838 | 0.73 | 0.89 | 0.786 | 0.722 | 0.771 |
| Calu-6 | – | – | – | – | – | 1.08 | 1.07 | 0.969 | 0.738 | 0.812 | 0.814 | 0.787 | 0.854 | 0.835 | – | – | – | – |
| ChaGo-K-1 | 0.955 | 0.941 | 0.913 | 0.821 | 0.986 | 0.96 | 0.957 | 0.941 | 0.989 | 1.16 | 1.17 | 1.17 | 1.06 | 1.09 | 0.76 | 0.704 | 0.704 | 0.717 |
| EBC-1 | – | – | – | – | – | 0.611 | 0.596 | 0.557 | 0.465 | 0.18 | 0.198 | 0.188 | 0.134 | 0.197 | – | – | – | – |
| EKVX | 0.447 | 0.338 | 0.39 | 0.393 | 0.322 | 1.22 | 1 | 0.928 | 0.6 | 1.06 | 0.756 | 0.899 | 1.06 | 1 | 0.732 | 0.725 | 0.704 | 0.383 |
| EMC-BAC-2 | 0.525 | – | 0.551 | 0.486 | 0.51 | 1.05 | 0.989 | 1.04 | 0.969 | 0.757 | 0.774 | 0.795 | 0.791 | 0.775 | 0.532 | 0.522 | 0.496 | 0.582 |
| EPLC-272H | 0.336 | 0.299 | 0.305 | 0.339 | 0.313 | 1.16 | 0.813 | 0.741 | 0.608 | – | 0.855 | 0.877 | 0.918 | 1.01 | 0.493 | 0.599 | 0.41 | 0.296 |
| H3255 | 0.303 | 0.309 | 0.325 | 0.301 | 0.315 | 0.812 | 0.884 | 0.723 | – | 1.07 | 0.806 | 0.889 | 0.85 | 0.825 | – | 0.843 | 0.753 | 0.295 |
| HARA | 0.298 | 0.219 | 0.272 | 0.242 | 0.294 | 1.16 | 1.04 | 1.07 | 1.06 | 1.24 | 1 | 0.938 | 0.924 | 1 | 0.446 | 0.512 | 0.607 | 0.434 |
| HCC-15 | 0.721 | 0.702 | 0.755 | 0.526 | 0.66 | 0.949 | 0.995 | 0.943 | 1.04 | 0.944 | 0.815 | 0.847 | 0.8 | 0.727 | 0.827 | 0.82 | 0.795 | 0.793 |
| HCC-44 | 1.02 | 0.897 | 0.939 | 0.994 | 0.921 | 0.87 | 0.975 | 0.883 | 0.915 | 0.823 | 0.84 | 0.739 | 0.881 | 0.848 | 1.09 | 1.07 | 1.1 | 1.07 |
| HCC-78 | 0.451 | 0.434 | 0.416 | 0.479 | 0.428 | 0.593 | 0.319 | 0.38 | – | 0.371 | 0.367 | 0.393 | 0.34 | 0.31 | 0.48 | 0.408 | 0.346 | 0.337 |
| HCC-366 | 0.458 | 0.381 | 0.416 | 0.46 | 0.434 | 0.996 | 1.16 | 1.03 | 1.03 | 0.487 | 0.466 | 0.481 | 1.04 | 0.462 | 0.389 | 0.287 | 0.373 | 0.415 |
